This is an account of results in patent US6413541B1, “Disintegrating tablet in oral cavity and production thereof” (Dainippon Pharmaceutical Co., Ltd., priority 2000, dated 2002).

How the values of data set [1] were obtained: These saccharides can be used alone or in a mixture of two or more of these saccharides, and can usually be contained in an amount of about 0.1 to about 20% by weight, preferably in an amount of about 0.5 to about 10% by weight in the present tablet.
Purified water at 25° C. (20 ml) was put into a beaker, and thereto was added each saccharide under stirring. Xylitol, sorbitol, glucose and sucrose were added in portions of 1 g, and erythritol was added in portions of 0.5 g, and lactose and mannitol were added in portions of 0.1 g, each. The mixture was stirred for one hour, and the dissolved amount of each saccharide was determined. The amount dissolving in 100 ml of water was converted and used as solubility of the saccharide in the present specification.

The conditions of data set [2]: in 100 ml of purified water at about 25° C.; Merck Index, 12th ed., 10220 (1996); cited from earlier work.

Like-named read-outs stand apart in the source and are kept apart here.

With `OC[C@@H](O)[C@@H](O)CO` [erythritol], in data set [1], the solubility result is listed as “about 47.5 g”.
The same measure, in the same setting: as for `OC[C@@H](O)[C@@H](O)[C@H](O)[C@@H](O)CO` [sorbitol], the entry is “about 130 g”; as for `OC[C@H]1O[C@@](CO)(O[C@H]2O[C@H](CO)[C@@H](O)[C@H](O)[C@H]2O)[C@@H](O)[C@@H]1O` [sucrose], “about 170 g”; as for `OC[C@@H](O)[C@H](O)[C@@H](O)CO` [xylitol], “about 135 g”.
For `O=C[C@H](O)[C@@H](O)[C@H](O)CO` [xylose], in data set [2], the solubility result was “about 125 g”.
